Measurements published in US20220135567A1, “TYK2 PSEUDOKINASE LIGANDS” (Ventyx Biosciences, Inc., priority 2019, published 2022).

Test system: IFN-a/Jak1Tyk2
Experiment: Co-stimulation assay in lysed whole blood: IFNa (JAK1/TYK2) stimulated STAT1 phosphorylation
Type: cell-based
Conditions: 20 min, lysed human whole blood, IFNa 100 ng/mL + GM-CSF 10 ng/mL, pSTAT1 by flow cytometry
Protocol: Dilute RBC lysis buffer to 1× in distilled water. Add 2 mL blood to 38 mL of 1×RBC-lysis buffer. Incubate for 15 mins at RT, in dark. Spin at 300 g, 5 mins, to collect the pellet. Re-lyse if necessary. Re-suspend pellet in 5 mL of cRPMI.
Aliquot 80 μL of lysed human blood in to wells of 96 deep-well plate. Add 10 μl of (10× conc.) of different concentrations of compounds to all wells except controls (unstained and unstimulated) and mix it with the help of 100 uL multichannel. Add 10 uL of RPMI media in controls. For dilution of compounds and dilution range please refer Appendix. Incubate on water bath or CO2 incubator for 1 hour at 37° C. Add 10 μl of (10× conc.) of cytokine mix (GM-CSF and IFNa) (final conc. 10 ng/mL of GM-CSF and 100 ng/mL of IFNa) to each well except unstimulated and unstained controls and incubate further for 20 minutes on water bath at 37° C.
Add 900 μL of prewarmed 1× Fix/Lyse solution (Appendix) and mix it properly using 1000 μl multichannel, incubate further on water bath at 37° C. for 10 minutes (which includes time of addition). Centrifuge at 800×g for 5 minutes at 40° C.; remove 900 uL of supernatant and add 900 μL of 1×PBS. Centrifuge at 800×g for 5 minutes at 40° C., remove 900 μL of supernatant. Wash one more time with 900 μL of PBS (optional) and resuspend pellets in 100 uL of PBS.
Disrupt the pellet by gentle tapping and resuspend in 1000 μL of BD Phosflow Perm Buffer III and incubate plate on ice for 30 minutes. Centrifuge plate at 800×g for 5 minutes at 40° C. Wash two more times with 1000 μL of BD Pharmingen Stain Buffer.
Disrupt the pellet by gentle tapping. Resuspend pellets in 100 uL of Stain Buffer and add 5 μL of pSTAT5_AF488 Ab and 5 uL of pSTAT1_PE in all wells except unstained control and mix properly using 200 μl multichannel, incubate overnight at […]. Add 900 μL of wash buffer and centrifuge at 1800 rpm for 3 minutes at […]. Wash one more time with 1000 μL of BD Pharmingen Stain Buffer. Finally resuspend the pellet in 300 uL of BD Pharmingen Stain Buffer. Transfer the cells to 96-well v-bottom plate and acquire the cells in Beckman Coulter CytExpert. Acquiring cells in Flow Cytometer: Keep the threshold value to 250 and cell concentration should not exceed 100-500 cells/μL. Acquire at least 5,000-10,000 cells.
Cytokine dilution: 1) GM-CSF Stock at 100 ug/mL. Prepare an intermediate dilution of 1 ug/mL by adding 2 uL of stock into 198 uL of cRPMI. Further dilute to 100 ng/mL by adding 100 uL of the intermediate stock to 900 uL of cRPMI. 2) IFNa Stock at 200 ug/mL. Dilute IFNa stock 1:200 by adding 5 uL of stock into the 1000 uL of 100 ng/mL GM-CSF working stock as above to give a combined working stock of 1000 ng/mL of IFNa and 100 ng/mL GM-CSF (10×). Keep it on ice until used.
Lyse/Fix buffer preparation: Dilute 5× Lyse/Fix buffer to 1× using MQ water and keep at 37° C. until used.
BD Phosflow perm buffer III: Keep on ice/fridge.

| SMILES | IC50 [µM] |
| --- | --- |
| CNc1cc(Nc2cccc3c2OCCO3)nc2c(C(=O)NC3CCOC3)cnn12 (stereo not shown) [Compound 68, 5-((2,3-dihydrobenzo[b][1,4]dioxin-5-yl)amino)-7-(methylamino)-N-(tetrahydrofuran-3-yl)pyrazolo[1,5-a]pyrimidine-3-carboxamide] | 0.1 to 1 |
| CNc1cc(Nc2ccnn2CCO)nc2c(C(=O)NC3CC3)cnn12 [Compound 69, N-cyclopropyl-5-((1-(2-hydroxyethyl)-1H-pyrazol-5-yl)amino)-7-(methylamino)pyrazolo[1,5-a]pyrimidine-3-carboxamide] | 1 to 10 |
| CNc1cc(Nc2ccnn2CC(F)(F)F)nc2c(C(=O)NC3CC3)cnn12 [Compound 70, N-cyclopropyl-7-(methylamino)-5-((1-(2,2,2-trifluoroethyl)-1H-pyrazol-5-yl)amino)pyrazolo[1,5-a]pyrimidine-3-carboxamide] | 0.1 to 1 |
| CNc1cc(Nc2cccc3c2OCCO3)nc2c(C(=O)NC3CC(C)(O)C3)cnn12 (stereo not shown) [Compound 75, 5-((2,3-dihydrobenzo[b][1,4]dioxin-5-yl)amino)-N-(3-hydroxy-3-methylcyclobutyl)-7-(methylamino)pyrazolo[1,5-a]pyrimidine-3-carboxamide] | < 0.1 |
| [2H]C([2H])([2H])Nc1cc(Nc2cc(Cl)cc3c2OCCO3)nc2c(C(=O)NC3CC3)cnn12 [Compound 77, 5-((7-chloro-2,3-dihydrobenzo[b][1,4]dioxin-5-yl)amino)-N-cyclopropyl-7-((methyl-d3)amino)pyrazolo[1,5-a]pyrimidine-3-carboxamide] | < 0.1 |
| [2H]C([2H])([2H])NC(=O)c1cnn2c(NC([2H])([2H])[2H])cc(Nc3cc(F)cc4c3OCCO4)nc12 [Compound 78, 5-((7-fluoro-2,3-dihydrobenzo[b][1,4]dioxin-5-yl)amino)-N-(methyl-d3)-7-((methyl-d3)amino)pyrazolo[1,5-a]pyrimidine-3-carboxamide] | 0.1 to 1 |
| [2H]C([2H])([2H])Nc1cc(Nc2cc(F)cc3c2OCCO3)nc2c(C(=O)N[C@H]3C[C@H]3F)cnn12 [Compound 79, 5-((7-fluoro-2,3-dihydrobenzo[b][1,4]dioxin-5-yl)amino)-N-((1S,2R)-2-fluorocyclopropyl)-7-((methyl-d3)amino)pyrazolo[1,5-a]pyrimidine-3-carboxamide] | < 0.1 |
| [2H]C([2H])([2H])Nc1cc(Nc2cc(F)cc3c2OCCO3)nc2c(C(=O)N[C@@H]3C[C@@H]3F)cnn12 [Compound 80, 5-((7-fluoro-2,3-dihydrobenzo[b][1,4]dioxin-5-yl)amino)-N-((1R,2S)-2-fluorocyclopropyl)-7-((methyl-d3)amino)pyrazolo[1,5-a]pyrimidine-3-carboxamide] | < 0.1 |
| [2H]C([2H])([2H])n1cccc(Nc2cc(NC)n3ncc(C(=O)N[C@H]4C[C@H]4F)c3n2)c1=O [Compound 83, N-((1S,2R)-2-fluorocyclopropyl)-5-((1-(methyl-d3)-2-oxo-1,2-dihydropyridin-3-yl)amino)-7-(methylamino)pyrazolo[1,5-a]pyrimidine-3-carboxamide] | 0.1 to 1 |
| [2H]C([2H])([2H])n1cccc(Nc2cc(NC)n3ncc(C(=O)N[C@@H]4C[C@@H]4F)c3n2)c1=O [Compound 85, N-((1R,2S)-2-fluorocyclopropyl)-5-((1-(methyl-d3)-2-oxo-1,2-dihydropyridin-3-yl)amino)-7-(methylamino)pyrazolo[1,5-a]pyrimidine-3-carboxamide] | < 0.1 |
| CNc1cc(Nc2cccn(C)c2=O)nc2c(C(=O)NC3CC(C#N)C3)cnn12 (stereo not shown) [Compound 87, N-(3-cyanocyclobutyl)-5-((1-methyl-2-oxo-1,2-dihydropyridin-3-yl)amino)-7-(methylamino)pyrazolo[1,5-a]pyrimidine-3-carboxamide] | 0.1 to 1 |
| CNc1cc(Nc2cccc3c2OCCC3)nc2c(C(=O)NC3CCC3)cnn12 [Compound 89, 5-(chroman-8-ylamino)-N-cyclobutyl-7-(methylamino)pyrazolo[1,5-a]pyrimidine-3-carboxamide] | < 0.1 |

Other lines, results leading:

| IC50 [µM] | SMILES |
| --- | --- |
| 1 to 10 | CNC(=O)c1cnn2c(NC)cc(Nc3cc(F)cc(F)c3OC)nc12 [Compound 71, 5-((3,5-difluoro-2-methoxyphenyl)amino)-N-methyl-7-(methylamino)pyrazolo[1,5-a]pyrimidine-3-carboxamide] |
| 0.1 to 1 | CCNc1cc(Nc2cc(C)cc(C)c2)nc2c(C(N)=O)cnn12 [Compound 72, 5-((3,5-dimethylphenyl)amino)-7-(ethylamino)pyrazolo[1,5-a]pyrimidine-3-carboxamide] |
| < 0.1 | CNc1cc(Nc2cc(F)cc(F)c2OC)nc2c(C(=O)NC3CC3F)cnn12 (stereo not shown) [Compound 73, 5-((3,5-difluoro-2-methoxyphenyl)amino)-N-(2-fluorocyclopropyl)-7-(methylamino)pyrazolo[1,5-a]pyrimidine-3-carboxamide] |
| > 0.3 | CNc1cc(Nc2cc(F)cc(F)c2OC)nc2c(C(N)=O)cnn12 [Compound 74, 5-((3,5-difluoro-2-methoxyphenyl)amino)-7-(methylamino)pyrazolo[1,5-a]pyrimidine-3-carboxamide] |
| < 0.1 | [2H]C([2H])([2H])Nc1cc(Nc2cc(F)cc3c2OCCO3)nc2c(C(N)=O)cnn12 [Compound 76, 5-((7-fluoro-2,3-dihydrobenzo[b][1,4]dioxin-5-yl)amino)-7-((methyl-d3)amino)pyrazolo[1,5-a]pyrimidine-3-carboxamide] |
| 0.1 to 1 | CNc1cc(Nc2cccc3c2CCCO3)nc2c(C(=O)NCC(C)(C)CO)cnn12 [Compound 81, 5-(chroman-5-ylamino)-N-(3-hydroxy-2,2-dimethylpropyl)-7-(methylamino)pyrazolo[1,5-a]pyrimidine-3-carboxamide] |
| 0.1 to 1 | CNc1cc(Nc2cccc3c2CCCO3)nc2c(C(=O)NC3CC3)cnn12 [Compound 82, 5-(chroman-5-ylamino)-N-cyclopropyl-7-(methylamino)pyrazolo[1,5-a]pyrimidine-3-carboxamide] |
| < 0.1 | [2H]C([2H])([2H])Nc1cc(Nc2cccc3c2OCCO3)nc2c(C(=O)NCC(C)(C)CO)cnn12 [Compound 84, 5-((2,3-dihydrobenzo[b][1,4]dioxin-5-yl)amino)-N-(3-hydroxy-2,2-dimethylpropyl)-7-((methyl-d3)amino)pyrazolo[1,5-a]pyrimidine-3-carboxamide] |
| > 3 | CNc1cc(Nc2cccn(C)c2=O)nc2c(C(=O)NC3CC(O)C3)cnn12 (stereo not shown) [Compound 86, N-(3-hydroxycyclobutyl)-5-((1-methyl-2-oxo-1,2-dihydropyridin-3-yl)amino)-7-(methylamino)pyrazolo[1,5-a]pyrimidine-3-carboxamide] |
| > 3 | CNc1cc(Nc2cccn(C)c2=O)nc2c(C(=O)NC3CC(OC)C3)cnn12 (stereo not shown) [Compound 88, N-(3-methoxycyclobutyl)-5-((1-methyl-2-oxo-1,2-dihydropyridin-3-yl)amino)-7-(methylamino)pyrazolo[1,5-a]pyrimidine-3-carboxamide] |
| < 0.1 | CNc1cc(Nc2cccc3c2OCCC3)nc2c(C(=O)NCC(C)(C)CO)cnn12 [Compound 90, 5-(chroman-8-ylamino)-N-(3-hydroxy-2,2-dimethylpropyl)-7-(methylamino)pyrazolo[1,5-a]pyrimidine-3-carboxamide] |
| 1 to 10 | CNc1cc(Nc2cccn(C)c2=O)nc2c(C(=O)NC3CC(F)(F)C3)cnn12 [Compound 91, N-(3,3-difluorocyclobutyl)-5-((1-methyl-2-oxo-1,2-dihydropyridin-3-yl)amino)-7-(methylamino)pyrazolo[1,5-a]pyrimidine-3-carboxamide] |
| < 0.1 | CNc1cc(Nc2cc(Cl)cc3c2OCCO3)nc2c(C(=O)NCC(C)(C)CO)cnn12 [Compound 92, 5-((7-chloro-2,3-dihydrobenzo[b][1,4]dioxin-5-yl)amino)-N-(3-hydroxy-2,2-dimethylpropyl)-7-(methylamino)pyrazolo[1,5-a]pyrimidine-3-carboxamide] |
